For 10 compounds, IC50 results are on record in US20070203066A1, “Compositions and methods for inhibiting cellular proliferation” (priority 2005, published 2007).

For orientation: IC50 means the concentration needed to halve the response being measured. Low readings indicate higher potency, high ones lower potency.

In the assay the test system is HUVECs. Type of assay: cell-based. The conditions noted are these: 48 h. Put shortly: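 Proliferation read-out: BrdU incorporation after 48-hour culture (37 ° C, 5% CO2) with graded peptide doses. Cells were in EBM with 2% FCS at 5,000 per well, driven by VEGF (5 ng/ml) or bFGF (10 ng/ml), added after ≥12-hour attachment.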

Starred links: 1 amine or outer side, 2 acyl side, 3 side chain; linkers in the order of their positions; H or OH if unused. Positions of bridges follow the written chain, without caps; N, C: chain ends. Residues, ends and D or L forms follow the SMILES beside them. Chains are numbered I, II in the order given. X1 = CC(C)(C)OC(=O)NCCC(=O)N(CCC(=O)[*:1])CCN(CCC(=O)[*:2])C(=O)CCNC(=O)OC(C)(C)C Where only a bound is given, the exact number is not on record here.

In the case of `CC[C@H](C)[C@H](NC(=O)[C@H](C)NC(=O)[C@@H](NC(=O)[C@H](CCCNC(=N)N)NC(=O)[C@H](CCC(N)=O)NC(=O)[C@H](CCCNC(=N)N)NC(=O)[C@H](CCCNC(=N)N)NC(=O)[C@H](CCCNC(=N)N)NC(=O)[C@H](CCCNC(=N)N)NC(=O)[C@H](C)NC(C)=O)C(C)C)C(=O)N[C@@H](Cc1ccc(O)cc1)C(=O)N[C@@H](Cc1ccccc1)C(=O)N[C@@H](CCCCNC(=O)CN(CC(=O)NCCCC[C@H](NC(=O)[C@H](Cc1ccccc1)NC(=O)[C@H](Cc1ccc(O)cc1)NC(=O)[C@@H](NC(=O)[C@H](C)NC(=O)[C@@H](NC(=O)[C@H](CCCNC(=N)N)NC(=O)[C@H](CCC(N)=O)NC(=O)[C@H](CCCNC(=N)N)NC(=O)[C@H](CCCNC(=N)N)NC(=O)[C@H](CCCNC(=N)N)NC(=O)[C@H](CCCNC(=N)N)NC(=O)[C@H](C)NC(C)=O)C(C)C)[C@@H](C)CC)C(N)=O)C(=O)CCNC(=O)OC(C)(C)C)C(N)=O` [Peptide 228], the IC50 was < 10 µM.

`CC[C@H](C)[C@H](NC(=O)[C@H](C)NC(=O)[C@@H](NC(=O)[C@H](C)NC(=O)[C@H](CCC(N)=O)NC(=O)[C@H](CCCNC(=N)N)NC(=O)[C@H](CCCNC(=N)N)NC(=O)[C@H](CCCNC(=N)N)NC(=O)[C@H](CCCNC(=N)N)NC(=O)[C@H](CCCNC(=N)N)NC(C)=O)C(C)C)C(=O)N[C@@H](Cc1c[nH]cn1)C(=O)N[C@@H](Cc1ccccc1)C(=O)N[C@@H](CCCCNC(=O)CN(CC(=O)NCCCC[C@H](NC(=O)[C@H](Cc1ccccc1)NC(=O)[C@H](Cc1c[nH]cn1)NC(=O)[C@@H](NC(=O)[C@H](C)NC(=O)[C@@H](NC(=O)[C@H](C)NC(=O)[C@H](CCC(N)=O)NC(=O)[C@H](CCCNC(=N)N)NC(=O)[C@H](CCCNC(=N)N)NC(=O)[C@H](CCCNC(=N)N)NC(=O)[C@H](CCCNC(=N)N)NC(=O)[C@H](CCCNC(=N)N)NC(C)=O)C(C)C)[C@@H](C)CC)C(N)=O)C(=O)CCNC(=O)OC(C)(C)C)C(N)=O` [Peptide 250]: the IC50 is < 10 µM.

In the case of `CC[C@@H](C)[C@@H](NC(=O)[C@@H](NC(=O)[C@H](C)NC(=O)[C@@H](NC(=O)[C@H](CCCNC(=N)N)NC(=O)[C@H](CCC(N)=O)NC(=O)[C@H](CCCNC(=N)N)NC(=O)[C@H](CCCNC(=N)N)NC(=O)[C@H](CCCNC(=N)N)NC(=O)[C@H](CCCNC(=N)N)NC(=O)[C@H](C)NC(C)=O)C(C)C)[C@@H](C)CC)C(=O)N[C@@H](Cc1ccccc1)C(=O)N[C@@H](CCCCNC(=O)CN(CC(=O)NCCCC[C@H](NC(=O)[C@H](Cc1ccccc1)NC(=O)[C@H](NC(=O)[C@@H](NC(=O)[C@H](C)NC(=O)[C@@H](NC(=O)[C@H](CCCNC(=N)N)NC(=O)[C@H](CCC(N)=O)NC(=O)[C@H](CCCNC(=N)N)NC(=O)[C@H](CCCNC(=N)N)NC(=O)[C@H](CCCNC(=N)N)NC(=O)[C@H](CCCNC(=N)N)NC(=O)[C@H](C)NC(C)=O)C(C)C)[C@@H](C)CC)[C@H](C)CC)C(N)=O)C(=O)CCNC(=O)OC(C)(C)C)C(N)=O` [Peptide 254], the half-inhibitory concentration (IC50) was < 10 µM.

Consider `CC[C@H](C)[C@H](NC(=O)[C@H](C)NC(=O)[C@@H](NC(=O)[C@H](C)NC(=O)[C@H](CCC(N)=O)NC(=O)[C@H](CCCNC(=N)N)NC(=O)[C@H](CCCNC(=N)N)NC(=O)[C@H](CCCNC(=N)N)NC(=O)[C@H](CCCNC(=N)N)NC(=O)[C@H](CCCNC(=N)N)NC(C)=O)C(C)C)C(=O)N[C@@H](Cc1ccc(O)cc1)C(=O)N[C@@H](Cc1ccccc1)C(=O)N[C@@H](CCCCNC(=O)CN(CC(=O)NCCCC[C@H](NC(=O)[C@H](Cc1ccccc1)NC(=O)[C@H](Cc1ccc(O)cc1)NC(=O)[C@@H](NC(=O)[C@H](C)NC(=O)[C@@H](NC(=O)[C@H](C)NC(=O)[C@H](CCC(N)=O)NC(=O)[C@H](CCCNC(=N)N)NC(=O)[C@H](CCCNC(=N)N)NC(=O)[C@H](CCCNC(=N)N)NC(=O)[C@H](CCCNC(=N)N)NC(=O)[C@H](CCCNC(=N)N)NC(C)=O)C(C)C)[C@@H](C)CC)C(N)=O)C(=O)CCNC(=O)OC(C)(C)C)C(N)=O` [Peptide 267], for which the IC50 is < 10 µM.

Take `CC[C@H](C)[C@H](NC(=O)[C@H](C)NC(=O)[C@@H](NC(=O)[C@H](C)NC(=O)[C@H](CCC(N)=O)NC(=O)[C@H](CCCNC(=N)N)NC(=O)[C@H](CCCNC(=N)N)NC(=O)[C@H](CCCNC(=N)N)NC(=O)[C@H](C)NC(=O)[C@H](CCCNC(=N)N)NC(C)=O)C(C)C)C(=O)N[C@@H](CC(N)=O)C(=O)N[C@@H](Cc1ccccc1)C(=O)N[C@@H](CCCCNC(=O)CN(CC(=O)NCCCC[C@H](NC(=O)[C@H](Cc1ccccc1)NC(=O)[C@H](CC(N)=O)NC(=O)[C@@H](NC(=O)[C@H](C)NC(=O)[C@@H](NC(=O)[C@H](C)NC(=O)[C@H](CCC(N)=O)NC(=O)[C@H](CCCNC(=N)N)NC(=O)[C@H](CCCNC(=N)N)NC(=O)[C@H](CCCNC(=N)N)NC(=O)[C@H](C)NC(=O)[C@H](CCCNC(=N)N)NC(C)=O)C(C)C)[C@@H](C)CC)C(N)=O)C(=O)CCNC(=O)OC(C)(C)C)C(N)=O` [Peptide 272]: the IC50 was < 10 µM.

`CC[C@H](C)[C@H](NC(=O)[C@H](CCCNC(=N)N)NC(=O)[C@@H](NC(=O)[C@H](CCCNC(=N)N)NC(=O)[C@H](CCC(N)=O)NC(=O)[C@H](CCCNC(=N)N)NC(=O)[C@H](CCCNC(=N)N)NC(=O)[C@H](CCCNC(=N)N)NC(=O)[C@H](CCCNC(=N)N)NC(=O)[C@H](CCCNC(=N)N)NC(C)=O)C(C)C)C(=O)N[C@@H](Cc1ccc(O)cc1)C(=O)N[C@@H](Cc1ccccc1)C(=O)N[C@@H](CCCCNC(=O)CN(CC(=O)NCCCC[C@H](NC(=O)[C@H](Cc1ccccc1)NC(=O)[C@H](Cc1ccc(O)cc1)NC(=O)[C@@H](NC(=O)[C@H](CCCNC(=N)N)NC(=O)[C@@H](NC(=O)[C@H](CCCNC(=N)N)NC(=O)[C@H](CCC(N)=O)NC(=O)[C@H](CCCNC(=N)N)NC(=O)[C@H](CCCNC(=N)N)NC(=O)[C@H](CCCNC(=N)N)NC(=O)[C@H](CCCNC(=N)N)NC(=O)[C@H](CCCNC(=N)N)NC(C)=O)C(C)C)[C@@H](C)CC)C(N)=O)C(=O)CCNC(=O)OC(C)(C)C)C(N)=O` [Peptide 279]: the IC50 is < 10 µM.

As to `CC[C@H](C)[C@H](NC(=O)[C@H](C)NC(=O)[C@@H](NC(=O)[C@H](C)NC(=O)[C@H](CCC(N)=O)NC(=O)[C@H](CCCNC(=N)N)NC(=O)[C@H](CCCNC(=N)N)NC(=O)[C@H](CCCNC(=N)N)NC(=O)[C@H](CCCNC(=N)N)NC(=O)[C@H](C)NC(C)=O)C(C)C)C(=O)N[C@@H](Cc1ccc(O)cc1)C(=O)N[C@@H](Cc1ccccc1)C(=O)N[C@@H](CCCCNC(=O)CN(CC(=O)NCCCC[C@H](NC(=O)[C@H](Cc1ccccc1)NC(=O)[C@H](Cc1ccc(O)cc1)NC(=O)[C@@H](NC(=O)[C@H](C)NC(=O)[C@@H](NC(=O)[C@H](C)NC(=O)[C@H](CCC(N)=O)NC(=O)[C@H](CCCNC(=N)N)NC(=O)[C@H](CCCNC(=N)N)NC(=O)[C@H](CCCNC(=N)N)NC(=O)[C@H](CCCNC(=N)N)NC(=O)[C@H](C)NC(C)=O)C(C)C)[C@@H](C)CC)C(N)=O)C(=O)CCNC(=O)OC(C)(C)C)C(N)=O` [Peptide 315], the IC50 is < 10 µM.

As for `CC[C@H](C)[C@H](NC(=O)[C@H](Cc1c[nH]cn1)NC(=O)[C@@H](NC(=O)[C@H](Cc1c[nH]cn1)NC(=O)[C@H](CCC(N)=O)NC(=O)[C@H](CCCNC(=N)N)NC(=O)[C@H](CCCNC(=N)N)NC(=O)[C@H](CCCNC(=N)N)NC(=O)[C@H](CCCNC(=N)N)NC(=O)[C@H](Cc1c[nH]cn1)NC(C)=O)C(C)C)C(=O)N[C@@H](Cc1ccc(O)cc1)C(=O)N[C@@H](Cc1ccccc1)C(=O)N[C@@H](CCCCNC(=O)CN(CC(=O)NCCCC[C@H](NC(=O)[C@H](Cc1ccccc1)NC(=O)[C@H](Cc1ccc(O)cc1)NC(=O)[C@@H](NC(=O)[C@H](Cc1c[nH]cn1)NC(=O)[C@@H](NC(=O)[C@H](Cc1c[nH]cn1)NC(=O)[C@H](CCC(N)=O)NC(=O)[C@H](CCCNC(=N)N)NC(=O)[C@H](CCCNC(=N)N)NC(=O)[C@H](CCCNC(=N)N)NC(=O)[C@H](CCCNC(=N)N)NC(=O)[C@H](Cc1c[nH]cn1)NC(C)=O)C(C)C)[C@@H](C)CC)C(N)=O)C(=O)CCNC(=O)OC(C)(C)C)C(N)=O` [Peptide 322], the IC50 was < 10 µM.

Consider `CC[C@H](C)[C@H](NC(=O)[C@H](C)NC(=O)[C@@H](NC(=O)[C@H](CCCNC(=N)N)NC(=O)[C@H](CCC(N)=O)NC(=O)[C@H](CCCNC(=N)N)NC(=O)[C@H](CCCNC(=N)N)NC(=O)[C@H](CCCNC(=N)N)NC(=O)[C@H](CCCNC(=N)N)NC(=O)[C@H](C)NC(C)=O)C(C)C)C(=O)N[C@@H](Cc1ccc(O)cc1)C(=O)N[C@@H](Cc1ccccc1)C(=O)N[C@@H](CCCCNC(=O)CCN(CCN(CCC(=O)NCCCC[C@H](NC(=O)[C@H](Cc1ccccc1)NC(=O)[C@H](Cc1ccc(O)cc1)NC(=O)[C@@H](NC(=O)[C@H](C)NC(=O)[C@@H](NC(=O)[C@H](CCCNC(=N)N)NC(=O)[C@H](CCC(N)=O)NC(=O)[C@H](CCCNC(=N)N)NC(=O)[C@H](CCCNC(=N)N)NC(=O)[C@H](CCCNC(=N)N)NC(=O)[C@H](CCCNC(=N)N)NC(=O)[C@H](C)NC(C)=O)C(C)C)[C@@H](C)CC)C(N)=O)C(=O)CCNC(=O)OC(C)(C)C)C(=O)CCNC(=O)OC(C)(C)C)C(N)=O` [Peptide 331] (I: Ac-ARRRRQRVAIYFK-NH2 / II: Ac-ARRRRQRVAIYFK-NH2; linker I:13-II:13 via X1; C-terminus assumed), for which the IC50 was < 10 µM.

Take `CC[C@H](C)[C@H](NC(=O)[C@H](CCCNC(=N)N)NC(=O)[C@@H](NC(=O)[C@H](Cc1c[nH]cn1)NC(=O)[C@H](CCC(N)=O)NC(=O)[C@H](CCCNC(=N)N)NC(=O)[C@H](CCCNC(=N)N)NC(=O)[C@H](Cc1c[nH]cn1)NC(=O)[C@H](Cc1c[nH]cn1)NC(=O)[C@H](CCCNC(=N)N)NC(C)=O)C(C)C)C(=O)N[C@@H](Cc1ccc(O)cc1)C(=O)N[C@@H](Cc1ccccc1)C(=O)N[C@@H](CCCCNC(=O)CN(CC(=O)NCCCC[C@H](NC(=O)[C@H](Cc1ccccc1)NC(=O)[C@H](Cc1ccc(O)cc1)NC(=O)[C@@H](NC(=O)[C@H](CCCNC(=N)N)NC(=O)[C@@H](NC(=O)[C@H](Cc1c[nH]cn1)NC(=O)[C@H](CCC(N)=O)NC(=O)[C@H](CCCNC(=N)N)NC(=O)[C@H](CCCNC(=N)N)NC(=O)[C@H](Cc1c[nH]cn1)NC(=O)[C@H](Cc1c[nH]cn1)NC(=O)[C@H](CCCNC(=N)N)NC(C)=O)C(C)C)[C@@H](C)CC)C(N)=O)C(=O)CCNC(=O)OC(C)(C)C)C(N)=O` [Peptide 333]: the IC50 is < 10 µM.
